Results as given in PubChem BioAssay AID248 (DTP/NCI, 2004).
Several values for one entry are separate records, joined by “and”; a condition that tells them apart may be missing. Equal values may be shown once. Inconclusive results and toxic doses are left out. No stated cut-off is given here; in the data, active means T/C of 150% or more; inactive means T/C below 125%.

System: L1210 leukemia ip in BDF1 mice, survival T/C
Experiment: NCI In Vivo Anticancer Drug Screen. Data for tumor model L1210 Leukemia (intraperitoneal) in B6D2F1 (BDF1) mice
Settings: endpoint: mean survival time, higher = longer survival
Procedure, shortened: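 Read-out is survival time, reported as the treated-group measurement over the vehicle-control measurement.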

[1] = dose: 100.0 mg/kg/injection, schedule: Q01DX001 (ip), vehicle: saline
[2] = dose: 200.0 mg/kg/injection, schedule: Q01DX001 (ip), vehicle: saline
[3] = dose: 400.0 mg/kg/injection, schedule: Q01DX001 (ip), vehicle: saline
[4] = dose: 100.0 mg/kg/injection, schedule: Q04DX002 (ip), vehicle: saline
[5] = dose: 200.0 mg/kg/injection, schedule: Q04DX002 (ip), vehicle: saline
[6] = dose: 100.0 mg/kg/injection, schedule: Q01DX009 (ip), vehicle: Klucel (hydroxypropylcellulose) (HPC)
[7] = dose: 200.0 mg/kg/injection, schedule: Q01DX009 (ip), vehicle: Klucel (hydroxypropylcellulose) (HPC)
[8] = dose: 400.0 mg/kg/injection, schedule: Q01DX009 (ip), vehicle: Klucel (hydroxypropylcellulose) (HPC)
[9] = dose: 100.0 mg/kg/injection, schedule: Q04DX002 (ip), vehicle: saline with Tween-80
[10] = dose: 200.0 mg/kg/injection, schedule: Q04DX002 (ip), vehicle: saline with Tween-80
[11] = dose: 50.0 mg/kg/injection, schedule: Q01DX009 (ip), vehicle: saline
[12] = dose: 50.0 mg/kg/injection, schedule: Q04DX003 (ip), vehicle: saline
[13] = dose: 100.0 mg/kg/injection, schedule: Q04DX003 (ip), vehicle: saline
[14] = dose: 50.0 mg/kg/injection, schedule: Q01DX001 (ip), vehicle: saline

Measured: T/C

COc1cc2c(cc1OC)C(=O)C(c1ccc3c(c1)OCO3)CC2 (stereo unspecified)
inactive: dose: 100.0 mg/kg/injection, schedule: Q01DX009 (ip), vehicle: water 102 % of control | dose: 100.0 mg/kg/injection, schedule: Q04DX003 (ip), vehicle: water 94 % of control | dose: 200.0 mg/kg/injection, schedule: Q01DX009 (ip), vehicle: water 91 % of control | dose: 200.0 mg/kg/injection, schedule: Q04DX003 (ip), vehicle: water 92 % of control | dose: 400.0 mg/kg/injection, schedule: Q01DX009 (ip), vehicle: water 101 % of control | dose: 400.0 mg/kg/injection, schedule: Q04DX003 (ip), vehicle: water 94 % of control

CCCCCCCCCCCCCCCCOc1cccc(OCc2ccccc2)c1
inactive: dose: 100.0 mg/kg/injection, schedule: Q04DX003 (ip), vehicle: DMSO 88 % of control | dose: 200.0 mg/kg/injection, schedule: Q04DX003 (ip), vehicle: DMSO 98 % of control | dose: 400.0 mg/kg/injection, schedule: Q04DX003 (ip), vehicle: DMSO 93 % of control

CC(C)SC(=S)Nc1ccc(Cl)c(Cl)c1
inactive: dose: 30.0 mg/kg/injection, schedule: Q04DX003 (ip), vehicle: saline 95 % of control | dose: 60.0 mg/kg/injection, schedule: Q04DX003 (ip), vehicle: saline 98 % of control | dose: 120.0 mg/kg/injection, schedule: Q04DX003 (ip), vehicle: saline 95 % of control

CC(C)(C)C(=O)C/C=N/Nc1ccc([N+](=O)[O-])cc1[N+](=O)[O-]
inactive: [1] 96 % of control | [2] 106 % of control | [3] 100 % of control

[Co+2].[NH-]C(CC(N)=O)C(=O)O.[NH-]C(CC(N)=O)C(=O)O (stereo unspecified)
inactive: [4] 108 % of control | [5] 86 % of control

CCC(C)NC(=O)Nc1ccccc1Cl (stereo unspecified)
inactive: [6] 101 % of control | [7] 95 % of control | [8] 100 % of control

O=C1Nc2ccccc2C1O (stereo unspecified)
inactive: [1] 101 % of control | [2] 101 % of control | [3] 108 % of control

C=CC[P+](c1ccccc1)(c1ccccc1)c1ccccc1
inactive: dose: 1.56 mg/kg/injection, schedule: Q01DX009 (ip), vehicle: Klucel (hydroxypropylcellulose) (HPC) 103 % of control | dose: 3.12 mg/kg/injection, schedule: Q01DX009 (ip), vehicle: Klucel (hydroxypropylcellulose) (HPC) 101 % of control | dose: 5.0 mg/kg/injection, schedule: Q01DX001 (ip), vehicle: saline 104 % of control | dose: 6.25 mg/kg/injection, schedule: Q01DX009 (ip), vehicle: Klucel (hydroxypropylcellulose) (HPC) 94 % of control | dose: 9.5 mg/kg/injection, schedule: Q01DX001 (ip), vehicle: other 107 % of control | dose: 10.0 mg/kg/injection, schedule: Q01DX001 (ip), vehicle: saline 98 % of control | dose: 12.5 mg/kg/injection, schedule: Q01DX009 (ip), vehicle: Klucel (hydroxypropylcellulose) (HPC) 103 % of control | dose: 19.0 mg/kg/injection, schedule: Q01DX001 (ip), vehicle: other 100 % of control | dose: 20.0 mg/kg/injection, schedule: Q01DX001 (ip), vehicle: saline 102 % of control | dose: 38.0 mg/kg/injection, schedule: Q01DX001 (ip), vehicle: other 102 % of control

c1ccc(-c2cc(-c3ccccc3)n(-c3ccccc3)c2)cc1
inactive: dose: 100.0 mg/kg/injection, schedule: Q01DX001 (ip), vehicle: saline with Tween-80 87 % of control | dose: 200.0 mg/kg/injection, schedule: Q01DX001 (ip), vehicle: saline with Tween-80 89 % of control

Cn1nc(NC(=O)C(C)(C)C)c(C#N)c1C#N
inactive: dose: 50.0 mg/kg/injection, schedule: Q04DX002 (ip), vehicle: saline with Tween-80 95 % of control | [9] 95 % of control | [10] 98 % of control

c1ccc(N/N=C2/CCN3CCCc4cccc2c43)cc1
inactive: dose: 3.0 mg/kg/injection, schedule: Q01DX009 (ip), vehicle: DMSO 98 % of control | dose: 6.0 mg/kg/injection, schedule: Q01DX009 (ip), vehicle: DMSO 96 % of control | dose: 12.0 mg/kg/injection, schedule: Q01DX009 (ip), vehicle: DMSO 95 % of control | dose: 12.5 mg/kg/injection, schedule: Q04DX003 (ip), vehicle: DMSO 101 % of control | dose: 25.0 mg/kg/injection, schedule: Q01DX009 (ip), vehicle: DMSO 89 % of control | dose: 25.0 mg/kg/injection, schedule: Q04DX003 (ip), vehicle: DMSO 100 % of control | dose: 50.0 mg/kg/injection, schedule: Q04DX003 (ip), vehicle: DMSO 104 % of control | dose: 100.0 mg/kg/injection, schedule: Q04DX003 (ip), vehicle: gum acacia 95 % of control

Nc1ccc(Nc2ccccc2)cc1
inactive: dose: 100.0 mg/kg/injection, schedule: Q04DX002 (ip), vehicle: Klucel (hydroxypropylcellulose) (HPC) 100 % of control | dose: 200.0 mg/kg/injection, schedule: Q04DX002 (ip), vehicle: Klucel (hydroxypropylcellulose) (HPC) 104 % of control

C[N+](C)(CCO)CC(O)c1ccc(C(O)C[N+](C)(C)CCO)cc1 (stereo unspecified)
inactive: dose: 0.05 mg/kg/injection, schedule: Q04DX003 (ip), vehicle: saline 102 % of control | dose: 0.1 mg/kg/injection, schedule: Q04DX003 (ip), vehicle: saline 104 % of control | dose: 0.2 mg/kg/injection, schedule: Q04DX003 (ip), vehicle: saline 93 % of control

O=C(NCc1ccc(Cl)c(Cl)c1)Nc1ccccc1Cl
inactive: [6] 97 % of control | [7] 100 % of control | [8] 103 % of control

CCN(CC)CCOc1ccccc1C(=O)CCc1ccccc1
inactive: dose: 12.5 mg/kg/injection, schedule: Q01DX009 (ip), vehicle: saline 93 % of control | dose: 25.0 mg/kg/injection, schedule: Q01DX009 (ip), vehicle: saline 93 % of control | dose: 25.0 mg/kg/injection, schedule: Q04DX003 (ip), vehicle: saline 99 % of control | [11] 100 % of control | [12] 97 % of control | [13] 102 % of control

O=C1OC(=O)C2C=CC=CC12 (stereo unspecified)
inactive: [9] 92 % of control | [10] 103 % of control | dose: 400.0 mg/kg/injection, schedule: Q04DX002 (ip), vehicle: saline with Tween-80 95 % of control

COc1ccc(CC(=O)OOC(C)(C)C)cc1
inactive: dose: 100.0 mg/kg/injection, schedule: Q04DX003 (ip), vehicle: saline with Tween-80 100 % of control | dose: 200.0 mg/kg/injection, schedule: Q04DX003 (ip), vehicle: saline with Tween-80 92 % of control

CSCCC(NC(=O)c1ccccc1)C(N)=O (stereo unspecified)
inactive: dose: 100.0 mg/kg/injection, schedule: Q01DX009 (ip), vehicle: saline with Tween-80 90 % of control | dose: 200.0 mg/kg/injection, schedule: Q01DX009 (ip), vehicle: saline with Tween-80 89 % of control

COc1ccc(/C=N\NC(=O)CCCC(=O)N/N=C/c2ccc(OC)c(OC)c2)cc1OC
inactive: [14] 100 % of control | [1] 100 % of control | [2] 93 % of control | [3] 100 % of control

CCCNC(=O)Nc1cccc(Cl)c1
inactive: dose: 100.0 mg/kg/injection, schedule: Q01DX001 (ip), vehicle: carboxymethylcellulose (CMC) 102 % of control | dose: 200.0 mg/kg/injection, schedule: Q01DX001 (ip), vehicle: carboxymethylcellulose (CMC) 109 % of control | dose: 400.0 mg/kg/injection, schedule: Q01DX001 (ip), vehicle: carboxymethylcellulose (CMC) 105 % of control

COc1ccc(C(=O)C(C)C(C)OC(=O)c2ccccc2C(=O)O)cc1 (stereo unspecified)
inactive: [1] 96 % of control | [2] 98 % of control | [3] 93 % of control

NCCCOc1ccc([N+](=O)[O-])cc1
inactive: [14] 100 % of control | [11] 104 % of control and 109 % of control | [12] 95 % of control | [1] 101 % of control | dose: 100.0 mg/kg/injection, schedule: Q01DX009 (ip), vehicle: saline 102 % of control and 107 % of control | [4] 96 % of control and 89 % of control | [13] 114 % of control | [2] 100 % of control | dose: 200.0 mg/kg/injection, schedule: Q01DX009 (ip), vehicle: saline 100 % of control | [5] 93 % of control and 96 % of control | dose: 200.0 mg/kg/injection, schedule: Q04DX003 (ip), vehicle: saline 106 % of control

Cc1cccc(-c2nc(N)nc(N)n2)c1
inactive: dose: 75.0 mg/kg/injection, schedule: Q01DX001 (ip), vehicle: saline 106 % of control | dose: 150.0 mg/kg/injection, schedule: Q01DX001 (ip), vehicle: saline 104 % of control | dose: 300.0 mg/kg/injection, schedule: Q01DX001 (ip), vehicle: saline 101 % of control
